“Also recorded” adds a separate entry of the source.
Key:
[1] = tested on: Type 2 Diabetic Mice; assay: ALT and AST biochemical analysis in blood (liver function); type: in vivo; conditions: later stage of treatment (4 weeks), Hitachi 7080 blood biochemical analyzer
Method: Mice were adapted to feed water and food arbitrarily every week, and after one week, they were fed in groups from the commercial feed 1320 (containing 11% fat) purchased from EJOY2 CORP. (New Taipei City, Taiwan) and D12451 (containing 45% high-fat feed) purchased from MEDGENE CO., LTD. (Taichung, Taiwan), induced for 12 weeks.
On the last day of the experiment, all animals (except for unplanned deaths) were fasted for 20 hours at the National Laboratory Animal Center and euthanized with pure carbon dioxide, followed by necropsy, organ weight (liver) and gross examination, including evaluation of liver and pancreas. Most lesions of animals were recorded at the time of final sacrifice, including scheduled euthanasia and unscheduled deaths. […]

[2] = tested on: Type 2 Diabetic Mice; assay: Oral glucose tolerance test (OGTT), final week (16th week), high-fat-diet type 2 diabetic mice; type: in vivo, mice C57BL/6JNarl; conditions: for average blood sugar at 120 minutes (OGTT): n=6, 120 minutes
Method: This experiment uses four-week-old male mice C57BL/6JNarl from National Laboratory Animal Center (Taipei, Taiwan), and they were bred with 12 hours of light/dark cycle under the environment of 23° C.±2° C. Mice were adapted to feed water and food arbitrarily every week, and after one week, they were fed in groups from the commercial feed 1320 (containing 11% fat) purchased from EJOY2 CORP. (New Taipei City, Taiwan) and D12451 (containing 45% high-fat feed) purchased from […] CO., LTD. (Taichung, Taiwan), induced for 12 weeks. During the experiment, the body weight of the mice and the fasting blood sugar value were measured every week and their changes were recorded. The mean±3SD of fasting blood sugar in mice was calculated. If the fasting blood sugar value exceeds the mean±3SD of the normal diet group, tube feeding administration would be started for 4 weeks, and blood sugar tolerance would be tested by tail vein blood collection in the last week of the experiment. […] Referring to FIGS. 1-2, they show the test results of oral glucose tolerance test (OGTT), respectively. Group A (NFD), Group B (NFD+5), Group C (NFD+20), Group D (HFD), Group E (HFD+5), Group F (HFD+10), Group G (HFD+20), Group H (Glibenclamide). NFD refers to normal fat diet, HFD refers to high fat diet, and Glibenclamide is an oral hypoglycemic drug that belongs to type 2 (non-insulin dependent) diabetic patients.

[3] = tested on: Type 2 Diabetic Mice; assay: Low-density lipoprotein (LDL) detection; type: in vivo, mice C57BL/6JNarl; conditions: HFD+5 group (SY1 5 mg/kg) compared with Western medicine group and HFD+10

Row | SMILES | liver function index (AST, ALT in blood) [1] | fasting blood sugar when no sugar water was fed (OGTT, 16th week) ([2]; HFD, Glibenclamide 5 mg/kg, after 4 weeks of drug treatment) | effect on lowering blood sugar in the later stage of treatment ([2]; HFD, Glibenclamide 5 mg/kg, after 4 weeks of drug treatment, compared with SY1) | effect on lowering LDL [3] | hypoglycemic effect compared with other groups (OGTT) ([2]; HFD+5 group (SY1 5 mg/kg) versus HFD+10, HFD+20 and Glibenclamide groups, 5 mg/kg) | average blood sugar at 120 minutes (OGTT) ([2]; HFD+5 group (high fat diet, SY1 5 mg/kg, tube feeding 4 weeks)) | effect on lowering blood sugar 30 minutes after feeding sugar water (OGTT) ([2]; HFD+5 low-dose group (SY1 5 mg/kg)) | average blood sugar at 120 minutes (OGTT) ([2]; HFD+10 group (high fat diet, SY1 10 mg/kg, tube feeding 4 weeks)) | effect on lowering blood sugar 30 minutes after feeding sugar water (OGTT) ([2]; HFD+10 middle-dose group (SY1 10 mg/kg))
1 | COc1ccc(Cl)cc1C(=O)NCCc1ccc(S(=O)(=O)NC(=O)NC2CCCCC2)cc1 [Glibenclamide, reference compound] | increased and reached a significant difference | higher fasting blood sugar increase than any other group | worse than that of SY1 |  |  |  |  |  | 
2 | COc1cc(C)c(OC)c2c1OCO2 [SY1, 4,7-dimethoxy-5-methyl-1,3-benzodioxole] | this phenomenon was not seen |  |  | not much different from that of the Western medicine group; also recorded: better than HFD+10 | equivalent to that of the HFD+10 group; also recorded: more obvious than the high-dose HFD+20 and hypoglycemic drug Glibenclamide group | 155.83 | obvious effect on lowering blood sugar | 155.33 | obvious effect on lowering blood sugar

Reference: US20250041264A1, “METHOD FOR TREATING DIABETES BY USING ANTRODIA CAMPHORATA COMPOUND” (Lantyng Biotechnology Corp., priority 2023, published 2025)
